We go through two compounds from paper PMC9539280 (Advanced Science, 2022).

In data set [1] the test system is hCMs (human pluripotent stem cell-derived cardiomyocytes). Put plainly: Cytotoxicity assay, calcein-AM/PI double staining, relative cell viability. The data set is classed as cell-based. On the procedure: (§1) hCMs were dissociated with 0.25% trypsin/EDTA (25200072, Gibco) and then seeded into 384‐well plates at the density of 8 × 10^3 cells per well. 24 h after seeding, cells were exposed to the drugs at the indicated concentrations for 6 days. Culture media were fully changed every 3 days with new drug supplementation. After drug treatment, cells were stained with calcein‐AM/PI/Hoechst for 20 min using calcein‐AM/PI double staining kit (C542, DOJINDO). Images were captured by the Operetta CLS High‐Content Analysis System (PerkinElmer). Number of live cells (calcein‐AM+/PI‐) and dead cells (PI+) was quantified by using the Harmony 4.9 software (PerkinElmer). Number of live cells was used to calculate the “relative cell viability” as follows (1) relarivecellviability=numberoflivecellsineachtreatment/numberoflivecellsinDMSOcontrol×100%

Data set [2] concerns hCMs.
In data set [3] the test system is hCMs. This is another data set of the same source.
For data set [4], the system named is hCMs. The source holds these as a separate data set.
The test system of data set [5] is hCMs. This is another data set of the same source.
The test system of data set [6] is hEHTs (human engineered heart tissues).
Data set [7] shares this test system. This is another data set of the same source.
For data set [8] the following is noted: in vivo; cited from earlier work.
For a further data set, the system named is remdesivir-treated hCMs. The data set is described as follows: High-throughput screening and validation of compounds protective against remdesivir (cell viability). The data set is classed as cell-based, human. The procedure: as §1
hCMs were seeded into 384‐well plates at a density of 8 × 10^3 cells per well. 24 h after seeding, the cells were treated with either 25 × 10^−6 M remdesivir alone or remdesivir with the chemicals from a Bioactive Compound Library (Topscience) consisted of 2464 natural compounds and US FDA‐approved drugs for 6 days. Chemicals at the concentration of 5 × 10^−6 M were transferred to the plates by using a Tecan Freedom EVO 150 liquid handler.

In data set [9] the test system is hCMs. Put plainly: Mitochondrial (MitoSox) and intracellular (DCFH-DA) ROS measurement in hCMs. The format is cell-based, human. To be noted: remdesivir 10 μM; Asta 10 μM, Vc 50 μg/ml, Vb1 10 μg/ml, NAC 1 mM, GSH 25 μg/ml; 4 or 6 days. On the procedure: Mitochondrial‐associated ROS and intracellular ROS were measured using MitoSox Red Mitochondrial Superoxide Indicator (M‐36008, ThermoFisher) and DCFH‐DA (S0033S, Beyotime), respectively. For mitochondrial‐associated ROS measurement, hCMs were loaded with 4 × 10^−6 M MitoSox dye in Hanks' balanced salt solution buffer for 15 min at 37 °C and washed twice with PBS. The MitoSox fluorescence (excitation/emission = 510/580 nm) was detected and quantified by the Operetta CLS High‐Content Analysis System. For intracellular ROS measurement, hCMs were loaded with 10 × 10^−6 M DCFH‐DA in serum‐free medium for 20 min at 37 °C and washed twice with serum‐free medium. The DCFH fluorescence (excitation/emission = 488/525 nm) was detected and quantified by the Operetta CLS High‐Content Analysis System.

In data set [10] the test system is mitochondrial permeability transition pore. To be noted: not told; cited from earlier work.
Data set [11] has as its system hEHTs (human engineered heart tissues). Put plainly: TUNEL/α-actinin staining of hEHTs. As to conditions: 2 × 10^−6 M remdesivir and 2 × 10^−6 M astaxanthin for 2 days.
The test system is the same in data set [12]. The data set is described as follows: Contractile force / spontaneous contractility of hEHTs. As to conditions: 2 × 10^−6 M remdesivir and 2 × 10^−6 M astaxanthin for 2 days.
For data set [13], the system named is hCMs. Put plainly: Spontaneous calcium transient measurement (Fluo-4) in hCMs. As to conditions: 10 × 10^−6 M remdesivir plus 10 × 10^−6 M astaxanthin, 6 days.
The subject of data set [14] is hCMs. Put plainly: Calcium measurement in hCMs under electrical field stimulation. To be noted: 10 × 10^−6 M remdesivir plus 10 × 10^−6 M astaxanthin, 6 days.

Molecules are shown by their SMILES.

Broadly, the Cmax is the peak of the concentration-time curve. `Cc1cccc(/C=N/Nc2cc(N3CCOCC3)nc(OCCc3ccccn3)n2)c1` [Apilimod, apilimod]: the “cell viability of hCMs” value in data set [1] (6 days, escalating concentrations (0.03-3 or 1-30 × 10^−6 M), calcein-AM/PI) is recorded as “dose‐dependent decrease”. Besides, the “apoptosis of hCMs (TUNEL)” value with hCMs [2] was “increased apoptosis”. Further, the “sarcomere organization of hCMs” value in the data set on hCMs [3] was “sarcomeric disarray”. In the data set on hCMs [4], the calcium transient amplitude result was “without apparently affecting”, the “time to 50% decay of the calcium transients” value is “increased” and the “time to peak of the calcium transients” value is reported as “increased”. Moreover, the “intracellular calcium handling properties of hCMs” value with hCMs [5] is listed as “impair”. Further, in data set [6], the “toxicity to hEHTs” value was “toxic to hEHTs”. Besides, in [7], the “abnormal beating of hEHTs (spontaneous contractility)” value is on record as “more severe”, the “contractile force of hEHTs” value is reported as “much lower”, the “hEHT function (tissue level cardiotoxicity)” value is “weaken hEHT function” and the “passive force of hEHTs” value is given as “increases of the passive force”. In addition, the Cmax in data set [8] was 270 nM.
With `CC1=C(/C=C/C(C)=C/C=C/C(C)=C/C=C/C=C(C)/C=C/C=C(C)/C=C/C2=C(C)C(=O)[C@@H](O)CC2(C)C)C(C)(C)C[C@H](O)C1=O` [astaxanthin], in data set [1] (absence of remdesivir, 3 μM and 10 μM), the “effects on normal hCMs (viability, apoptosis, sarcomere organization)” value is reported as “little effects”. In the data set with remdesivir-treated hCMs, the “protective effect against remdesivir compared with the other hits” value is listed as “most prominent protective effect”. Further, the “remdesivir-induced cardiotoxicity (cell viability), protection” value in the data set with remdesivir-treated hCMs (10 × 10^−6 or 25 × 10^−6 M remdesivir for 6 days with co-administration) was “confirmed to reduce”. For the same compound, the “could alter the level of ROS in hCMs when co-stimulated with remdesivir” value in the data set on hCMs [9] was “neither”. In addition, the “opening of mitochondrial permeability transition pore” value in [10] is on record as “inhibit the opening”. For the same compound, the “cell apoptosis in hEHTs exposed to remdesivir” value in data set [11] is reported as “remarkably decreased”. In data set [12], the “decrease in contractile force induced by remdesivir in hEHTs” value is “significantly resolved” and the “proportion of abnormal beating induced by remdesivir in hEHTs” value was “significantly resolved”. The “remdesivir-induced alterations in calcium transient duration” value in the data set with hCMs [13] was “reversed”. Moreover, the “frequency of abnormal beating caused by remdesivir” value in the data set on hCMs [14] is “relieved dramatically”.
